Test results reported in ChEMBL document CHEMBL3860110, “First Structure-Activity Relationship of 17β-Hydroxysteroid Dehydrogenase Type 14 Nonsteroidal Inhibitors and Crystal Structures in Complex with the Enzyme” (J Med Chem, 2016).

Assays:
[1] = Dissociation constant, pKa of the compound at OH/C-ring; type: physicochemical
[2] = molecular target: T1, 17-beta-hydroxysteroid dehydrogenase type 2 (Homo sapiens, UniProt P37059); test: Inhibition of purified human placental microsomal 17beta-HSD2 using [3H]-E2 substrate and NAD+ by HPLC based radioactive […] assay
T1 sequence (P37059 whole entry): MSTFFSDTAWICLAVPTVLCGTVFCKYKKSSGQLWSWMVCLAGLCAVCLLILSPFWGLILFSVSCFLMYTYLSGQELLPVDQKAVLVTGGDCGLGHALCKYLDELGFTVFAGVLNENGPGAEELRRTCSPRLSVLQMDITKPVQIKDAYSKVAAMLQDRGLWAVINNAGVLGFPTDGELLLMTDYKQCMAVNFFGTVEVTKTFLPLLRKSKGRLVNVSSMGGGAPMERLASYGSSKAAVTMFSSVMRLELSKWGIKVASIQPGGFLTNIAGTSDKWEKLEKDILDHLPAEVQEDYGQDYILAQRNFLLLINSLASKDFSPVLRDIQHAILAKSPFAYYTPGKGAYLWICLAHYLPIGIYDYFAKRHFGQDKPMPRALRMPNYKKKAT

[3] = molecular target: T2, 17-beta-hydroxysteroid dehydrogenase 14 (Homo sapiens) (UniProt Q9BPX1); test: Inhibition of N-terminal 6His-tagged human HSD17B14 expressed in Escherichia coli BL21 (DE3) pLysS at 22.2 uM using E2 substrate and NAD+ incubated for 2 hrs using purified enzyme by fluorimetric assay
T2 sequence (whole entry): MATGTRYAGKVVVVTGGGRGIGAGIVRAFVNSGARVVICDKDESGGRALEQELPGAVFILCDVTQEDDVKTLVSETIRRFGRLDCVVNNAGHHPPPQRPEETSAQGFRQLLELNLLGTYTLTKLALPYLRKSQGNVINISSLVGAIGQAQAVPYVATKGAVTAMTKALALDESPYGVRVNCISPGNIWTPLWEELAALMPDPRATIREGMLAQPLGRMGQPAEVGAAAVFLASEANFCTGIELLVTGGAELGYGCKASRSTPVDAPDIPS

pKa [1] | Structure (SMILES) | other results
7.8 | O=C(c1ccc(F)c(O)c1)c1cccc(-c2ccc(O)c(F)c2)n1 | 
 | Cc1cc(-c2ccc(C(=O)c3ccc(F)c(O)c3)cc2)ccc1O | IC50 [2]: 40 nM
8.8 | O=C(c1cccc(O)c1)c1cccc(-c2ccc(O)c(F)c2)n1 | 
 | COc1ccc(-c2ccc(C(=O)c3ccc(F)c(OC)c3)nc2)cc1F | inhibition [3]: 57%
